Experimental data as given in paper PMC7041903, “Isothermal Titration Calorimetry Enables Rapid Characterization of Enzyme Kinetics and Inhibition for the Human Soluble Epoxide Hydrolase” (Analytical Chemistry, 2019).

Each molecule was assayed against T1, human soluble epoxide hydrolase (hsEH) (Homo sapiens, UniProt P34913) (assay: single-injection ITC enzyme kinetics (KM)).
T1 construct: gene EPHX2; C-terminal domain (CTD)
T1 sequence (P34913 230-555 limits assumed): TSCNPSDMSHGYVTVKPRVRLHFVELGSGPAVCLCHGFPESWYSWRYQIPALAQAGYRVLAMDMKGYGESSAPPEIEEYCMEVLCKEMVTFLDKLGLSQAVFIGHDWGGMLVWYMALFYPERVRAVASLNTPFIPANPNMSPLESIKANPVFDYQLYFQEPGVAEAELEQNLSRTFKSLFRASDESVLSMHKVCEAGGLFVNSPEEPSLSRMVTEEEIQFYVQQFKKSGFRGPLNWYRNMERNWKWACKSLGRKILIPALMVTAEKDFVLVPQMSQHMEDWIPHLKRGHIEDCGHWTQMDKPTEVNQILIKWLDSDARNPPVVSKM
Format: biochemical

| Compound | Km [µM] |
| --- | --- |
| CCC1OC1C/C=C\C/C=C\C/C=C\C/C=C\CCCC(=O)O (stereo not shown) [17(18)EpETE] | 26.4 ± 4.05 |
| CCCCCC1OC1C/C=C\C/C=C\C/C=C\CCCC(=O)O (stereo not shown) [14(15)EET] | 12.9 ± 1.94 |
| CCCCC/C=C\CC1OC1C/C=C\C/C=C\CCCC(=O)O (stereo not shown) [11(12)EET] | 1.74 ± 0.2 |
| CCC1OC1C/C=C\C/C=C\C/C=C\C/C=C\C/C=C\CCC(=O)O (stereo not shown) [19(20)EpDPE] | 26.6 ± 1.21 |
| CC/C=C\C/C=C\C/C=C\CC1OC1C/C=C\CCCC(=O)O (stereo not shown) [8(9)EpETE] | 9.74 ± 0.13 |
| CCCCC/C=C\C/C=C\CC1OC1C/C=C\CCCC(=O)O (stereo not shown) [8(9)EET] | 23.1 ± 2.39 |

These molecules were tested against T1, human soluble epoxide hydrolase (hsEH) (assay: single-injection ITC enzyme kinetics (KM; saturation not reached)).
Format: biochemical

| Compound | Km [µM] |
| --- | --- |
| CCCCC/C=C\C/C=C\C/C=C\CC1OC1CCCC(=O)O (stereo not shown) [5(6)EET] | 46.6 ± 11 |
